From patent US9040663B2, “Melanocortin receptor-specific peptides” (AstraZeneca AB, priority 2009, dated 2015)
Like-named read-outs stand apart in the source and are kept apart here. Positions of bridges follow the written chain, without caps; N, C: chain ends. Non-standard residues stand in square brackets, D forms with d. Residues, ends and D or L forms follow the SMILES beside them. dPhe(4-CN) = N#Cc1ccc(C[C@@H](N)C(=O)O)cc1; dPhe(3-Cl) = N[C@H](Cc1cccc(Cl)c1)C(=O)O; Orn = NCCC[C@H](N)C(=O)O

Key:
[1] = target: T1, hMC4-R (Homo sapiens (Human), UniProt P32245); assay: Competitive inhibition binding assay using [I125]-NDP-α-MSH, hMC4-R; conditions: membranes of HEK-293 cells expressing recombinant hMC4-R, read-out: MC4-R Ki
T1 sequence (P32245 whole entry): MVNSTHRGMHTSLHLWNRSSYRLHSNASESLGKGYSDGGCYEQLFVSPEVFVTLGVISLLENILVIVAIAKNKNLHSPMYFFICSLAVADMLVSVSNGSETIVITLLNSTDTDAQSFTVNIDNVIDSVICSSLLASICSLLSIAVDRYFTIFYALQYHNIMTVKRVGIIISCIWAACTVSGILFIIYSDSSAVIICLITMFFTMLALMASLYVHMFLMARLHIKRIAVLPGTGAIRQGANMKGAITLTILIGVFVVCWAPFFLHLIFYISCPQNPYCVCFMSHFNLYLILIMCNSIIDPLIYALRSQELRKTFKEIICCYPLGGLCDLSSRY
Description: 7.1 Competitive Inhibition Assay using [I^125]-NDP-α-MSH.
A competitive inhibition binding assay was performed for exemplified peptides according to the invention using membrane homogenates prepared from HEK-293 cells that express recombinant hMC4-R, hMC3-R, or hMC5-R, and from B-16 mouse melanoma cells (containing endogenous MC1-R). In some instances, HEK-293 cells that express recombinant hMC1-R were employed. Assays were performed in 96 well GF/B Millipore multiscreen filtration plates (MAFB NOB10) pre-coated with 0.5% bovine serum albumin (Fraction V). Membrane homogenates were incubated with 0.2 nM (for hMC4-R) 0.4 nM (for MC3-R and MC5-R) or 0.1 nM (for mouse B16 MC1-R or hMC1-R) [I^125]-NDP-α-MSH (Perkin Elmer) and increasing concentrations of test peptides of the present invention in buffer containing 25 mM HEPES buffer (pH 7.5) with 100 mM NaCl, 2 mM CaCl2, 2 mM MgCl2, 0.3 mM 1,10-phenanthroline, and 0.2% bovine serum albumin. After incubation for 60 minutes at 37° C., the assay mixture was filtered and the membranes washed three times with ice-cold buffer. Filters were dried and counted in a gamma counter for bound radioactivity. […] Maximal specific binding (100%) was defined as the difference in radioactivity (cpm) bound to cell membranes in the absence and presence of 1 μM NDP-α-MSH. […] Each assay was conducted in triplicate and the actual mean values are described, with results less than 0% reported as 0%. Ki values for test peptides of the present invention were determined using Graph-Pad Prism® curve-fitting software.

[2] = target: T1, hMC4-R; assay: High and low density hMC4-R functional assay (cAMP, HEK293-T-REx-MC4-R cells); format: cell-based; conditions: for Emax: NDP-α-MSH = 100%, read-out: Intrinsic Activity (%)
Description: The cells were then dispensed into 96-well plates (BD 353916) in 198 μL (about 5×10^4) cells/well and incubated for 10 minutes at 37° C. The compound to be tested was diluted with DMSO to a final concentration of 1 mM. […] 120 μL of the 1 mM compound stock was pipetted in the second column on the plate. […] All assay samples were run in duplicate (i.e. each sample was in two low dox and two high dox plates, respectively). The plates were gently shaken and incubated for 15 minutes at 37° C.

[3] = 0.1 ng/mL Doxycycline (low density hMC4-R system)
[4] = 10 ng/mL Doxycycline (high density hMC4-R system)

Row | SMILES | Ki [1] [nM] | EC50 [2, 3] [nM] | Emax [2, 3] [%] | EC50 [2, 4] [nM] | Emax [2, 4] [%]
1 | CC(=O)N[C@@H](CCCNC(=N)N)C(=O)N[C@H]1CCCNC(=O)CC[C@@H](C(N)=O)NC(=O)[C@H](Cc2c[nH]c3ccccc23)NC(=O)[C@H](CCCNC(=N)N)NC(=O)[C@@H](Cc2ccccc2Cl)NC(=O)[C@H](CC(N)=O)NC1=O [Example 113, Ac-Arg-cyclo(Orn-Asn-D-Phe(2-Cl)-Arg-Trp-Glu)-NH2] | 7 | – | 80 | 0.065 | 100
2 | CC(=O)N[C@@H](CCCNC(=N)N)C(=O)N[C@H]1CCC(=O)NCCC[C@@H](C(N)=O)NC(=O)[C@H](Cc2c[nH]c3ccccc23)NC(=O)[C@H](CCCNC(=N)N)NC(=O)[C@@H](Cc2ccccc2Cl)NC(=O)[C@H](CN)NC1=O [Example 62, Ac-Arg-cyclo(Glu-Dap-D-Phe(2-Cl)-Arg-Trp-Orn)-NH2] | 9 | 16 | 23 | 0.47 | 84
3 | CC(=O)N[C@@H](CCCNC(=N)N)C(=O)N[C@H]1CCC(=O)NCCC[C@@H](C(N)=O)NC(=O)[C@H](Cc2c[nH]c3ccccc23)NC(=O)[C@H](CCCNC(=N)N)NC(=O)[C@@H](Cc2ccccc2C)NC(=O)[C@H](CC(N)=O)NC1=O [Example 73, Ac-Arg-cyclo(Glu-Asn-D-Phe(2-Me)-Arg-Trp-Orn)-NH2] | 4 | – | 86 | – | 102
4 | CC(=O)N[C@@H](CCCNC(=N)N)C(=O)N[C@H]1CCCNC(=O)CC[C@@H](C(N)=O)NC(=O)[C@H](Cc2c[nH]c3ccccc23)NC(=O)[C@H](CCCNC(=N)N)NC(=O)[C@@H](Cc2ccccc2C(F)(F)F)NC(=O)[C@H](CC(N)=O)NC1=O [Example 117, Ac-Arg-cyclo(Orn-Asn-D-Phe(2-CF3)-Arg-Trp-Glu)-NH2] | 5 | 1 | 50 | – | 112
5 | CC(=O)N[C@H](CCCNC(=N)N)C(=O)N[C@H]1CC(=O)NCCCC[C@@H](C(N)=O)NC(=O)[C@H](Cc2c[nH]c3ccccc23)NC(=O)[C@H](CCCNC(=N)N)NC(=O)[C@@H](Cc2ccc(F)cc2)NC(=O)[C@H](CCC(N)=O)NC1=O [Example 83, Ac-D-Arg-cyclo(Asp-Gln-D-Phe(4-F)-Arg-Trp-Lys)-NH2] | 6 | 0.75 | 78 | 0.075 | 94
6 | CC(=O)N[C@@H](CCCNC(=N)N)C(=O)N[C@H]1CCC(=O)NCCC[C@@H](C(N)=O)NC(=O)[C@H](Cc2c[nH]c3ccccc23)NC(=O)[C@H](CCCNC(=N)N)NC(=O)[C@@H](Cc2ccccc2F)NC(=O)[C@H](CCC(N)=O)NC1=O [Example 59, Ac-Arg-cyclo(Glu-Gln-D-Phe(2-F)-Arg-Trp-Orn)-NH2] | 7 | 0.6 | 90 | 0.1 | 98
7 | CC(=O)N[C@@H](CCCNC(=N)N)C(=O)N[C@H]1CCCNC(=O)CC[C@@H](C(N)=O)NC(=O)[C@H](Cc2c[nH]c3ccccc23)NC(=O)[C@H](CCCNC(=N)N)NC(=O)[C@@H](Cc2ccccc2C)NC(=O)[C@H](CCC(N)=O)NC1=O [Example 111, Ac-Arg-cyclo(Orn-Gln-D-Phe(2-Me)-Arg-Trp-Glu)-NH2] | 6 | – | 81 | – | 104
8 | CC(=O)N[C@@H](CCCNC(=N)N)C(=O)N[C@H]1CCC(=O)NCCC[C@@H](C(N)=O)NC(=O)[C@H](Cc2c[nH]c3ccccc23)NC(=O)[C@H](CCCNC(=N)N)NC(=O)[C@@H](Cc2cccc(Cl)c2)NC(=O)[C@H](CN)NC1=O [Example 61, Ac-Arg-cyclo(Glu-Dap-D-Phe(3-Cl)-Arg-Trp-Orn)-NH2] | 4 | – | 6 | 0.95 | 89
9 | CC(=O)N[C@@H](CCCNC(=N)N)C(=O)N[C@H]1CCC(=O)NCCC[C@@H](C(N)=O)NC(=O)[C@H](Cc2c[nH]c3ccccc23)NC(=O)[C@H](CCCNC(=N)N)NC(=O)[C@@H](Cc2ccccc2C(F)(F)F)NC(=O)[C@H](CC(N)=O)NC1=O [Example 116, Ac-Arg-cyclo(Glu-Asn-D-Phe(2-CF3)-Arg-Trp-Orn)-NH2] | 7 | – | 77 | 0.095 | 104

The remaining lines, values ahead:

Row | Ki [1] [nM] | EC50 [2, 3] [nM] | Emax [2, 3] [%] | EC50 [2, 4] [nM] | Emax [2, 4] [%] | SMILES
10 | 1 | 0.21 | 94 | 0.085 | 94 | CC(=O)N[C@H](CCCNC(=N)N)C(=O)N[C@H]1CCCNC(=O)CC[C@@H](C(N)=O)NC(=O)[C@H](Cc2c[nH]c3ccccc23)NC(=O)[C@H](CCCNC(=N)N)NC(=O)[C@@H](Cc2ccccc2Cl)NC(=O)[C@H](Cc2c[nH]cn2)NC1=O [Example 50, Ac-D-Arg-cyclo(Orn-His-D-Phe(2-Cl)-Arg-Trp-Glu)-NH2]
11 | 4 | 3 | 11 | 0.35 | 84 | CC(=O)N[C@@H](CCCNC(=N)N)C(=O)N[C@H]1CCCNC(=O)CC[C@@H](C(N)=O)NC(=O)[C@H](Cc2c[nH]c3ccccc23)NC(=O)[C@H](CCCNC(=N)N)NC(=O)[C@@H](Cc2cccc(C)c2)NC(=O)[C@H](CC(N)=O)NC1=O [Example 72, Ac-Arg-cyclo(Orn-Asn-D-Phe(3-Me)-Arg-Trp-Glu)-NH2]
12 | 4 | 6 | 27 | – | 93 | CC(=O)N[C@@H](CCCNC(=N)N)C(=O)N[C@H]1CCC(=O)NCCC[C@@H](C(N)=O)NC(=O)[C@H](Cc2c[nH]c3ccccc23)NC(=O)[C@H](CCCNC(=N)N)NC(=O)[C@@H](Cc2cccc(Cl)c2)NC(=O)[C@H](CCCCN)NC1=O [Example 100, Ac-Arg-cyclo(Glu-Lys-D-Phe(3-Cl)-Arg-Trp-Orn)-NH2] (Ac-REK[dPhe(3-Cl)]RW[Orn]-NH2; lactam 2-7)
13 | 1 | 0.3 | 44 | 0.17 | 97 | CC(=O)N[C@@H](CCCNC(=N)N)C(=O)N[C@H]1CCCCNC(=O)C[C@@H](C(N)=O)NC(=O)[C@H](Cc2c[nH]c3ccccc23)NC(=O)[C@H](CCCNC(=N)N)NC(=O)[C@@H](Cc2ccc(C#N)cc2)NC(=O)[C@H](CCC(N)=O)NC1=O [Example 93, Ac-Arg-cyclo(Lys-Gln-D-Phe(4-CN)-Arg-Trp-Asp)-NH2] (Ac-RKQ[dPhe(4-CN)]RWD-NH2; lactam 2-7)
14 | 2 | 0.1 | 81 | – | 89 | CC(=O)N[C@@H](CCCNC(=N)N)C(=O)N[C@H]1CCC(=O)NCCC[C@@H](C(N)=O)NC(=O)[C@H](Cc2c[nH]c3ccccc23)NC(=O)[C@H](CCCNC(=N)N)NC(=O)[C@@H](Cc2ccc(F)cc2)NC(=O)[C@H](CCC(N)=O)NC1=O [Example 92, Ac-Arg-cyclo(Glu-Gln-D-Phe(4-F)-Arg-Trp-Orn)-NH2]
15 | 1 | 0.95 | 36 | 0.14 | 93 | CC(=O)N[C@@H](CCCNC(=N)N)C(=O)N[C@H]1CCC(=O)NCCC[C@@H](C(N)=O)NC(=O)[C@H](Cc2c[nH]c3ccccc23)NC(=O)[C@H](CCCNC(=N)N)NC(=O)[C@@H](Cc2cccc(Cl)c2)NC(=O)[C@H](CCCN)NC1=O [Example 101, Ac-Arg-cyclo(Glu-Orn-D-Phe(3-Cl)-Arg-Trp-Orn)-NH2]
16 | 0.06 | – | 0.5 | 0.75 | 53 | CC(=O)N[C@@H](CCCNC(=N)N)C(=O)N[C@H]1CCC(=O)NCCC[C@@H](C(N)=O)NC(=O)[C@H](Cc2c[nH]c3ccccc23)NC(=O)[C@H](CCCNC(=N)N)NC(=O)[C@@H](Cc2ccc(C(F)(F)F)cc2)NC(=O)[C@H](CCN)NC1=O [Example 20, Ac-Arg-cyclo(Glu-Dab-D-Phe(4-CF3)-Arg-Trp-Orn)-NH2]
17 | 3 | 1 | 64 | 0.065 | 100 | COc1cccc(C[C@H]2NC(=O)[C@H](CCN)NC(=O)[C@@H](NC(=O)[C@H](CCCNC(=N)N)NC(C)=O)CCC(=O)NCCC[C@@H](C(N)=O)NC(=O)[C@H](Cc3c[nH]c4ccccc34)NC(=O)[C@H](CCCNC(=N)N)NC2=O)c1 [Example 87, Ac-Arg-cyclo(Glu-Dab-D-Phe(3-OMe)-Arg-Trp-Orn)-NH2]
18 | 2 | 2 | 24 | 0.235 | 100 | CC(=O)N[C@@H](CCCNC(=N)N)C(=O)N[C@H]1CCCNC(=O)CC[C@@H](C(N)=O)NC(=O)[C@H](Cc2c[nH]c3ccccc23)NC(=O)[C@H](CCCNC(=N)N)NC(=O)[C@@H](Cc2cc(F)c(F)c(F)c2)NC(=O)[C@H](CC(N)=O)NC1=O [Example 96, Ac-Arg-cyclo(Orn-Asn-D-Phe(3,4,5-triF)-Arg-Trp-Glu)-NH2]
